ChEMBL document CHEMBL5316290, “Targeted Protein Degradation Induced by HEMTACs Based on HSP90” (J Med Chem, 2023)
Activity calls are given as the source filed them. The rule behind the calls is not given here.

Columns and labels:
B16-F10 [1] = assay: Anticancer activity against mouse B16-F10 cells implanted in C57BL/6J mouse assessed as reduction in CDK4/6 positive cells in tumor at 20 mg/kg, ip administered once daily for 2 weeks and measured every 2 days by immunohistochemical analysis; type: functional, organism-based
B16-F10 [2] = assay: Induction of apoptosis in mouse B16-F10 cells assessed as live cells at 250 nM incubated for 48 hrs by Annexin V-FITC/PI staining based flow cytometry analysis (reference value: 92.85 %); type: functional
B16-F10 [3] = assay: Anticancer activity against mouse B16-F10 cells xenografted in zebra fish embryos assessed as inhibition of cell growth at 1 uM measured at 6 days post fertilization; type: functional, cell-based; settings: time 6.0 day
Lung = assay: Downregulation of CDK4/6 protein level in lung of C57BL/6J mouse implanted with mouse B16-F10 cells at 20 mg/kg, ip administered once daily for 2 weeks and measured every 2 days by immunohistochemical analysis; type: functional, organism-based
[4] = Toxicity in C57BL/6J mouse implanted with mouse B16-F10 cells at 20 to 40 mg/kg, ip administered once daily for 2 weeks and measured every 2 days; type: organism-based; settings: in vivo, 336 h, dose 20-40 mg/kg
[5] = biological target: HSP90/Cyclin-dependent kinase 4 (Mus musculus, UniProt P07901+P11499+P30285); assay: HEMTAC activity at HSP90/CDK4 in mouse B16-F10 cells assessed as induction of CDK4 degradation incubated for 24 hrs by Western blot analysis; type: cell-based
[6] = biological target: T1, HSP90/Cyclin-dependent kinase 4 (Mus musculus) (UniProt P30285+P07901+P11499); assay: HEMTAC activity at HSP90/CDK4 in mouse B16-F10 cells assessed as reduction in CDK4 protein level at 0.5 uM incubated for 24 hrs by global proteomics analysis; type: cell-based
MDA-MB-231 = assay: Cytotoxicity against human MDA-MB-231 cells assessed as inhibition of cell growth incubated for 72 hrs by CCK-8 assay; type: functional, cell-based; settings: MDA-MB-231, 72 h
HFF-1 = assay: Cytotoxicity against human HFF-1 cells assessed as reduction of cell viability incubated for 72 hrs by CCK-8 assay; type: toxicity, cell-based; settings: hff-1, 72 h
B16-F10 [7] = assay: Anticancer activity against mouse B16-F10 cells implanted in C57BL/6J mouse assessed as reduction in tumor growth at 20 to 40 mg/kg, ip administered once daily for 2 weeks and measured every 2 days by vernier caliper method; type: functional, organism-based; settings: dose 20-40 mg/kg
[8] = biological target: HSP90/Cyclin-dependent kinase 6 (Mus musculus, UniProt P07901+P11499+Q64261); assay: HEMTAC activity at HSP90/CDK6 in mouse B16-F10 cells assessed as induction of […] degradation incubated for 24 hrs by Western blot analysis; type: cell-based
B16-F10 [9] = assay: Induction of cell cycle arrest in mouse B16-F10 cells assessed as accumulation of cells at G2 phase at 125 nM incubated for 24 hrs by RNase/PI staining based flow cytometry analysis (reference value: 16.13%); type: functional
B16-F10 [10] = assay: Cytotoxicity against mouse B16-F10 cells assessed as inhibition of cell growth incubated for 72 hrs by CCK-8 assay; type: functional, cell-based; settings: B16-F10, 72 h
B16-F10 [11] = assay: Induction of apoptosis in mouse B16-F10 cells assessed as live cells at 125 nM incubated for 48 hrs by Annexin V-FITC/PI staining based flow cytometry analysis (reference value: 92.85 %); type: functional
A549 = assay: Cytotoxicity against human A549 cells assessed as inhibition of cell growth incubated for 72 hrs by CCK-8 assay; type: functional, cell-based; settings: A549, 72 h
[12] = biological target: Heat shock protein HSP 90-alpha (Homo sapiens, UniProt P07900); assay: Binding affinity to CM5 sensor chip immobilized human HSP90alpha assessed as dissociation constant by SPR analysis
B16-F10 [13] = assay: Induction of cell cycle arrest in mouse B16-F10 cells assessed as accumulation of cells at G1 phase at 250 nM incubated for 24 hrs by RNase/PI staining based flow cytometry analysis (reference value: 68.89%); type: functional
[14] = biological target: T2, HSP90/Cyclin-dependent kinase 6 (Mus musculus) (UniProt P07901+Q64261+P11499); assay: HEMTAC activity at HSP90/CDK6 in mouse B16-F10 cells assessed as induction of […] degradation by measuring maximal degradation incubated for 24 hrs by Western blot analysis relative to control; type: cell-based
B16-F10 [15] = assay: Binding affinity to HSP90/CDK4 in mouse B16-F10 assessed as ternary complex formation at 5 uM incubated for 6 hrs by co-immunoprecipitation assay; type: cell-based
[16] = biological target: T1, HSP90/Cyclin-dependent kinase 4 (Mus musculus); assay: HEMTAC activity at HSP90/CDK4 in mouse B16-F10 cells assessed as induction of CDK4 degradation by measuring maximal degradation incubated for 24 hrs by Western blot analysis relative to control; type: cell-based
[17] = Toxicity in C57BL/6J mouse implanted with mouse B16-F10 cells assessed as morphological changes in lung at 20 mg/kg, ip administered once daily for 2 weeks and measured every 2 days by H and E staining based analysis; type: organism-based; settings: in vivo, 336 h
B16-F10 [18] = assay: Induction of apoptosis in mouse B16-F10 cells assessed as early apoptotic cells at 125 nM incubated for 48 hrs by Annexin V-FITC/PI staining based flow cytometry analysis (reference value: 3.42%); type: functional
B16-F10 [19] = assay: Inhibition of cell migration in mouse B16-F10 cells at 0.25 to 1 uM by wound healing assay; type: functional, cell-based; settings: dose 0.25-1 µM
[20] = biological target: T2, HSP90/Cyclin-dependent kinase 6 (Mus musculus); assay: HEMTAC activity at HSP90/CDK6 in mouse B16-F10 cells assessed as reduction in CDK6 protein level at 0.5 uM incubated for 24 hrs by global proteomics analysis; type: cell-based
[21] = biological target: T2, HSP90/Cyclin-dependent kinase 6 (Mus musculus); assay: HEMTAC activity at HSP90/CDK6 in mouse B16-F10 cells assessed as induction of CDK6 degradation at 0.1 uM incubated for 24 hrs in presence of palbociclib by Western blot analysis; type: cell-based
B16-F10 [22] = assay: Induction of apoptosis in mouse B16-F10 cells assessed as early apoptotic cells at 250 nM incubated for 48 hrs by Annexin V-FITC/PI staining based flow cytometry analysis (reference value: 3.42%); type: functional
B16-F10 [23] = assay: Induction of apoptosis in mouse B16-F10 cells assessed as late apoptotic cells at 125 nM incubated for 48 hrs by Annexin V-FITC/PI staining based flow cytometry analysis (reference value: 1.97%); type: functional
[24] = biological target: T1, HSP90/Cyclin-dependent kinase 4 (Mus musculus); assay: HEMTAC activity at HSP90/CDK4 in mouse B16-F10 cells assessed as induction of CDK4 degradation at 0.5 uM pretreated with proteasome inhibitor, MG132 for 2 hrs followed by compound addition and measured after 24 hrs by Western blot analysis; type: cell-based
[25] = biological target: T1, HSP90/Cyclin-dependent kinase 4 (Mus musculus); assay: HEMTAC activity at HSP90/CDK4 in mouse B16-F10 cells assessed as induction of CDK4 degradation at 0.5 uM measured after 12 hrs by Western blot analysis; type: cell-based
B16-F10 [26] = assay: Induction of apoptosis in mouse B16-F10 cells assessed as dead cells at 250 nM incubated for 48 hrs by Annexin V-FITC/PI staining based flow cytometry analysis (reference value: 1.75%); type: functional
[27] = Acute toxicity in zebra fish embryos incubated for 72 hrs; set-up: species or system Danio rerio; settings: zebrafish
A-375 = assay: Cytotoxicity against human A-375 cells assessed as inhibition of cell growth incubated for 72 hrs by CCK-8 assay; type: functional, cell-based; settings: A-375, 72 h

Which Activity (B16-F10 [1]) does the source give for `COc1c(C)cnc(Cn2cc(C#CCCn3cc(CNC(=O)CN4CCN(c5ccc(Nc6ncc7c(C)c(C(C)=O)c(=O)n(C8CCCC8)c7n6)nc5)CC4)nn3)c3c(Cl)nc(N)nc32)c1C` here?
Its Activity is “Active”.

What about the Activity (B16-F10 [2]) of the same compound?
The Activity was 62.24%.

And the inhibition (B16-F10 [3])?
Its inhibition is “Active”.

What about the Activity (Lung) of the same compound?
Its Activity is “inactive”.

What about the Activity [4] of the same compound?
Its Activity is “Non-Toxic”.

What about the EC50 [5] of the same compound?
Its EC50 is 0.026 µM.

What about the Activity [6] of the same compound?
Its Activity is “Active”.

And the IC50 (MDA-MB-231)?
The IC50 was 0.313 µM.

And the Activity (HFF-1)?
Its Activity is “Non-Toxic”.

What about the Activity (B16-F10 [7]) of the same compound?
The Activity was “Active”.

And the EC50 [8]?
The EC50 was 0.019 µM.

And the Activity (B16-F10 [9])?
Its Activity is 18.05%.

What about the IC50 (B16-F10 [10]) of the same compound?
The IC50 was 0.112 µM.

What about the Activity (B16-F10 [11]) of the same compound?
The Activity was 72.27%.

And the IC50 (A549)?
The IC50 was 0.86 µM.

And the Kd [12]?
The Kd was 0.357 µM.

What about the Activity (B16-F10 [13]) of the same compound?
The Activity was 81.26%.

What about the Emax [14] of the same compound?
The Emax was 92%.

What about the Activity (B16-F10 [15]) of the same compound?
Its Activity is “Active”.

And the Emax [16]?
The Emax was 88%.

And the Activity [17]?
Its Activity is “Non-Toxic”.

What about the Activity (B16-F10 [18]) of the same compound?
The Activity was 14.42%.

What about the inhibition (B16-F10 [19]) of the same compound?
The inhibition was “Active”.

And the Activity [20]?
The Activity was “Active”.

What about the Activity [21] of the same compound?
Its Activity is “inactive”.

And the Activity (B16-F10 [22])?
The Activity was 20.11%.

And the Activity (B16-F10 [23])?
Its Activity is 11.55%.

What about the Activity [24] of the same compound?
Its Activity is “inactive”.

What about the Activity [25] of the same compound?
The Activity was “Active”.

And the Activity (B16-F10 [26])?
The Activity was 2.55%.

What about the LC50 at 72 h [27] of the same compound?
The LC50 at 72 h was greater than 100 µM.

And the IC50 (A-375)?
The IC50 was 0.126 µM.
